Values joined by “and” are separate entries in the source; they are usually repeats but may differ in a detail not shown here. Identical values can stand only once. Inconclusive results and toxic doses are left out. The calls were made as follows: active = survival T/C of 150% or more; inactive = T/C below 125% in these data.
Test system: CD2F1 mice, L1210 leukemia ip, survival T/C
Test: NCI In Vivo Anticancer Drug Screen. Data for tumor model L1210 Leukemia (intraperitoneal) in CD2F1 (CDF1) mice
Conditions: endpoint: mean survival time, higher = longer survival
Summary of the method: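 Antitumor effect is scored in animals hosting a serially transplanted tumor. Values compare compound-dosed animals against vehicle-only controls as a simple quotient.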

[1] = dose: 12.5 mg/kg/injection, schedule: Q01DX009 (ip), vehicle: saline with Tween-80
[2] = dose: 25.0 mg/kg/injection, schedule: Q01DX009 (ip), vehicle: saline with Tween-80
[3] = dose: 50.0 mg/kg/injection, schedule: Q01DX009 (ip), vehicle: saline with Tween-80
[4] = dose: 100.0 mg/kg/injection, schedule: Q01DX009 (ip), vehicle: saline with Tween-80
[5] = dose: 200.0 mg/kg/injection, schedule: Q01DX009 (ip), vehicle: saline with Tween-80
[6] = dose: 400.0 mg/kg/injection, schedule: Q01DX009 (ip), vehicle: saline with Tween-80
[7] = dose: 100.0 mg/kg/injection, schedule: Q04DX003 (ip), vehicle: saline
[8] = dose: 100.0 mg/kg/injection, schedule: Q04DX003 (ip), vehicle: saline with Tween-80
[9] = dose: 200.0 mg/kg/injection, schedule: Q04DX003 (ip), vehicle: saline with Tween-80
[10] = dose: 400.0 mg/kg/injection, schedule: Q04DX003 (ip), vehicle: saline with Tween-80
[11] = dose: 100.0 mg/kg/injection, schedule: Q01DX001 (ip), vehicle: saline with Tween-80
[12] = dose: 400.0 mg/kg/injection, schedule: Q01DX001 (ip), vehicle: saline with Tween-80

Measured: T/C

c1ccc(C[Se]Cc2ccccc2)cc1
inactive: dose: 6.25 mg/kg/injection, schedule: Q01DX009 (ip), vehicle: other 102 % of control | dose: 12.5 mg/kg/injection, schedule: Q01DX009 (ip), vehicle: other 97 % of control | dose: 25.0 mg/kg/injection, schedule: Q01DX009 (ip), vehicle: other 97 % of control | dose: 25.0 mg/kg/injection, schedule: Q04DX003 (ip), vehicle: other 101 % of control | dose: 50.0 mg/kg/injection, schedule: Q04DX003 (ip), vehicle: other 87 % of control

CC(Sc1ccccc1)C(=O)OC1C=CCCC1 (centres undefined)
inactive: dose: 100.0 mg/kg/injection, schedule: Q04DX002 (ip), vehicle: saline with Tween-80 98 % of control | dose: 200.0 mg/kg/injection, schedule: Q04DX002 (ip), vehicle: saline with Tween-80 106 % of control | dose: 400.0 mg/kg/injection, schedule: Q04DX002 (ip), vehicle: saline with Tween-80 98 % of control

N=c1ccn2c(n1)OC1C(OC(=O)C34CC5CC(CC(C5)C3)C4)C(COC(=O)C34CC5CC(CC(C5)C3)C4)OC12 (centres undefined)
inactive: dose: 12.5 mg/kg/injection, schedule: Q01DX005 (ip), vehicle: distilled water + Tween-80 104 % of control | dose: 25.0 mg/kg/injection, schedule: Q01DX005 (ip), vehicle: distilled water + Tween-80 107 % of control | dose: 50.0 mg/kg/injection, schedule: Q01DX005 (ip), vehicle: distilled water + Tween-80 121 % of control

O=C1c2ccccc2C(=O)c2c(NCCCNCCO)ccc(NCCCNCCO)c21
inactive: [1] 104 % of control | [2] 96 % of control | [3] 102 % of control

CC(C)(N)C(=O)O
inactive: [4] 100 % of control | [5] 101 % of control | [6] 103 % of control

CC([NH-])c1ccccc1.[Cl][Pt]([Cl])[Cl] (centres undefined)
inactive: [7] 101 % of control | dose: 200.0 mg/kg/injection, schedule: Q04DX003 (ip), vehicle: saline 100 % of control | dose: 400.0 mg/kg/injection, schedule: Q04DX003 (ip), vehicle: saline 101 % of control

O=C(c1ccc(Cl)cc1)C1CC(Br)C(Br)CC1C(=O)c1ccc(Cl)cc1 (centres undefined)
inactive: [4] 96 % of control | [8] 101 % of control | [5] 98 % of control | [9] 98 % of control | [6] 100 % of control | [10] 98 % of control

N=C(N)c1ccc(OCCCCOc2ccc(NC(=O)Nc3cc(S(=O)(=O)F)ccc3Cl)cc2)cc1
inactive: dose: 75.0 mg/kg/injection, schedule: Q01DX001 (ip), vehicle: saline with Tween-80 95 % of control | dose: 150.0 mg/kg/injection, schedule: Q01DX001 (ip), vehicle: saline with Tween-80 90 % of control | dose: 300.0 mg/kg/injection, schedule: Q01DX001 (ip), vehicle: saline with Tween-80 95 % of control

Cc1cc(Br)ccc1[NH-].Cc1cc(Br)ccc1[NH-].[Cl][Pt+2][Cl]
inactive: dose: 8.8 mg/kg/injection, schedule: Q04DX003 (ip), vehicle: saline with Tween-80 97 % of control | dose: 17.5 mg/kg/injection, schedule: Q04DX003 (ip), vehicle: saline with Tween-80 97 % of control | dose: 35.0 mg/kg/injection, schedule: Q04DX003 (ip), vehicle: saline with Tween-80 97 % of control | dose: 70.0 mg/kg/injection, schedule: Q04DX003 (ip), vehicle: saline with Tween-80 109 % of control

CC/C=C/CCOC(=N)C(Cl)(Cl)Cl
inactive: [3] 92 % of control | [4] 92 % of control | [5] 101 % of control

Cc1ncc(CO)c(C2NOCc3nscc32)c1O (centres undefined)
inactive: dose: 18.0 mg/kg/injection, schedule: Q01DX009 (ip), vehicle: Klucel (hydroxypropylcellulose) (HPC) 90 % of control | dose: 28.0 mg/kg/injection, schedule: Q01DX009 (ip), vehicle: Klucel (hydroxypropylcellulose) (HPC) 89 % of control

CN(C)C1c2cc(Cl)ccc2-c2ccc(Cl)cc21
inactive: dose: 50.0 mg/kg/injection, schedule: Q01DX001 (ip), vehicle: carboxymethylcellulose (CMC) 101 % of control | dose: 100.0 mg/kg/injection, schedule: Q01DX001 (ip), vehicle: carboxymethylcellulose (CMC) 95 % of control | dose: 200.0 mg/kg/injection, schedule: Q01DX001 (ip), vehicle: carboxymethylcellulose (CMC) 101 % of control | dose: 400.0 mg/kg/injection, schedule: Q01DX001 (ip), vehicle: carboxymethylcellulose (CMC) 98 % of control

O=c1c(O)c(-c2ccc(O)c(O)c2)oc2cc(O)cc(O)c12
inactive: dose: 100.0 mg/kg/injection, schedule: Q01DX001 (ip), vehicle: saline 100 % of control | dose: 200.0 mg/kg/injection, schedule: Q01DX001 (ip), vehicle: saline 100 % of control | [5] 90 % of control | dose: 400.0 mg/kg/injection, schedule: Q01DX001 (ip), vehicle: saline 100 % of control | [6] 96 % of control | dose: 800.0 mg/kg/injection, schedule: Q01DX009 (ip), vehicle: saline with Tween-80 87 % of control

CCCCN1C(=O)C(=O)N(c2ccc(S(N)(=O)=O)cc2)C1=O
inactive: [3] 100 % of control | [4] 89 % of control

CN(C)N=Nc1cc(C(F)(F)F)cc(C(F)(F)F)c1
inactive: [2] 104 % of control | [3] 101 % of control | [4] 98 % of control | [5] 95 % of control | [6] 104 % of control

CCN(CC)c1ccc2cc(-c3nc4ccccc4n3C)c(=O)oc2c1
inactive: dose: 3.13 mg/kg/injection, schedule: Q01DX009 (ip), vehicle: Klucel (hydroxypropylcellulose) (HPC) 90 % of control | dose: 6.25 mg/kg/injection, schedule: Q01DX009 (ip), vehicle: Klucel (hydroxypropylcellulose) (HPC) 91 % of control and 93 % of control and 96 % of control | dose: 12.5 mg/kg/injection, schedule: Q01DX009 (ip), vehicle: Klucel (hydroxypropylcellulose) (HPC) 93 % of control and 96 % of control and 103 % of control | dose: 50.0 mg/kg/injection, schedule: Q01DX009 (ip), vehicle: Klucel (hydroxypropylcellulose) (HPC) 120 % of control and 121 % of control and 103 % of control

Cc1c(N)ccc(O)c1C
inactive: [1] 98 % of control | [2] 97 % of control | [3] 92 % of control

CC1(C)CCCC2(C)C(OCCO)=CC(=O)C=C12 (centres undefined)
inactive: dose: 100.0 mg/kg/injection, schedule: Q04DX003 (ip), vehicle: saline sonified 96 % of control | dose: 200.0 mg/kg/injection, schedule: Q04DX003 (ip), vehicle: saline sonified 98 % of control | dose: 400.0 mg/kg/injection, schedule: Q04DX003 (ip), vehicle: saline sonified 96 % of control

C[N+](C)(CCCCCCCCCC[N+](C)(C)CC(=O)c1ccccc1)CC(=O)c1ccccc1
inactive: dose: 0.5 mg/kg/injection, schedule: Q04DX003 (ip), vehicle: saline 101 % of control | dose: 1.0 mg/kg/injection, schedule: Q04DX003 (ip), vehicle: saline 94 % of control | dose: 2.0 mg/kg/injection, schedule: Q04DX003 (ip), vehicle: saline 95 % of control

Cc1cc(NC(=O)NC/C(Cl)=C/Cl)c2ccccc2n1
inactive: [11] 93 % of control | dose: 200.0 mg/kg/injection, schedule: Q01DX001 (ip), vehicle: saline with Tween-80 93 % of control | [12] 98 % of control

O=c1[nH]cc(S(=O)(=O)Nc2ccccc2)c(=O)[nH]1
inactive: [11] 88 % of control | [12] 96 % of control

Cc1ccc(NC(=O)OCCOc2ccc(Cl)cc2)cc1C
inactive: [3] 96 % of control | [4] 92 % of control | [5] 87 % of control

NC(CCSCc1ccccc1)C(=O)O (centres undefined)
inactive: [4] 91 % of control | [8] 98 % of control | [5] 91 % of control | [9] 93 % of control | [6] 91 % of control | [10] 95 % of control

[NH2-].[NH2-].[NH2-].[NH2-].[Pt+4]
inactive: [2] 92 % of control | [7] 98 % of control
